Assay results from US20220280594A1, “APPLICATION OF POLYPEPTIDE OR DERIVATIVE THEREOF” (CHENGDU HUITAI BIOMEDICINE CO., LTD., priority 2019, published 2022).
Ends that are not written are not given here. PEG = not defined here

How the values were obtained:
Assay type in all cases: cell-based
[1] = system: human breast cancer cells (MCF-7); test: scratch assay, migration of MCF-7 cells; settings: MCF-7, 10 μM, 48 hours; control group 30.97 ± 1.79
In short: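 MCF-7 monolayers scratched, then cultured 48 hours in 2% FBS medium with test peptide at 10 μM versus PBS control, triplicate wells. Migration rate (%) = (original − current scratch width)/original width × 100, measured from images.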

[2] = system: human thyroid cancer cells (FRO); test: scratch assay, migration of FRO cells; settings: 10 μM, 48 hours, control group 60.34 ± 8.32
In short: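 FRO monolayers were scratched, washed, and cultured 48 h in 2% FBS medium with polypeptide derivatives at 10 μM or PBS control, three wells per group. Migration rate (%) = (original − current scratch width)/original width × 100, measured from images.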

[3] = system: human breast cancer cells (MDA-MB-453); test: scratch assay, migration of MDA-MB-453 cells; settings: MDA-MB-453, 10 μM, 48 hours; control group 32.42 ± 2.04
In short: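 Confluent MDA-MB-453 monolayers were scratched, then treated with peptide at 10 μM in 2% FBS medium for 48 h, with a PBS control and triplicate wells. Migration rate (%) was taken as (original − current scratch width)/original width ×100 from images.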

[4] = system: human breast cancer cells (MDA-MB-231); test: scratch assay, migration of MDA-MB-231 cells; settings: MDA-MB-231, 10 μM, 48 hours; control group 36.19 ± 5.15
In short: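 MDA-MB-231 monolayers (1-2×10^5 cells/well) were scratched, then kept 48 h in medium with 2% FBS containing polypeptide at 10 μM, with a PBS control, in triplicate wells. Migration rate (%) was taken from scratch width: (original − current)/original ×100.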

[5] = system: human melanoma cells (A375); test: scratch assay, migration of A375 cells; settings: A375, 10 μM, 48 hours; control group 44.03 ± 6.21
In short: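 Monolayers scratched, washed with PBS and cultured 48 hours in 2% FBS medium with polypeptides N1-N54 at 10 μM or PBS control, three wells per group. Migration rate (%) = (original − current scratch width)/original width×100, from imaged scratch widths.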

[6] = system: human pancreatic cancer cells (PANC-1); test: scratch assay, migration of PANC-1 cells; settings: PANC-1, 10 μM, 48 hours; control group 66.65 ± 3.37
In short: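 PANC-1 monolayers were scratched, then cultured for 48 h with 10 μM test compound in 2% FBS medium, in three parallel wells per group against a PBS control. Migration rate (%) was calculated as (original minus current scratch width) / original width × 100, from imaged wells.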

[7] = system: human prostate cancer cells (22RV1); test: scratch assay, migration of 22RV1 cells; settings: 22RV1, 10 μM, 48 hours; control group 25.41 ± 5.01
In short: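 22RV1 monolayers (seeded 1-2×10^5 cells/well) were scratched, washed, then given 2% FBS medium with 10 μM polypeptide or PBS, triplicate wells, for 48 h. Migration rate (%) = (original − current scratch width)/original width ×100, from ≥3 images per well.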

[8] = system: human pharyngeal squamous-cell carcinoma cells (Fadu); test: scratch assay, migration of Fadu cells; settings: 10 μM, 48 hours, control group 28.76 ± 4.08
In short: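 Confluent Fadu monolayers scratched, then cultured 48 h with 10 μM polypeptide in medium with 2% FBS; PBS control, triplicate wells. Migration rate (%) = (original − current scratch width)/original width × 100, from ≥3 images per well.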

[9] = system: human lung squamous carcinoma cells (NCI-H226); test: scratch assay, migration of NCI-H226 cells; settings: NCI-H226, 10 μM, 48 hours; control group 65.31 ± 3.19
In short: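 A straight scratch was made in confluent NCI-H226 monolayers (1-2×10^5 cells/well). Cells were then kept 48 h in 2% FBS medium with 10 μM polypeptide or PBS control, triplicate wells. Migration rate (%) = (original − current scratch width)/original width ×100, from imaged scratch widths.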

[10] = system: human lung cancer cells (95D); test: scratch assay, migration of 95D cells; settings: 10 μM, 48 hours, control group 55.3 ± 3.19
In short: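 Confluent 95D monolayers were scratched, washed with PBS and cultured 48 h in 2% FBS medium containing peptide (10 μM) or PBS control, in triplicate wells. Scratch width was measured on images; migration rate (%) = (original width − current width)/original width × 100.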

[11] = system: human colon cancer cells (HCT-116); test: scratch assay, migration of HCT-116 cells; settings: HCT-116, 10 μM, 48 hours; control group 47.78 ± 6.07
In short: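 Confluent HCT-116 monolayers were scratched, washed and cultured 48 h in 2% FBS medium with peptide at 10 μM versus PBS control, triplicate wells. Migration rate (%) = (original minus current scratch width)/original width × 100, from at least 3 images per well.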

[12] = system: human oral epidermoid carcinoma KB cells; test: scratch assay, migration of KB cells; settings: 10 μM, 48 hours, control group 54.03 ± 4.21
In short: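 Monolayers of KB cells were scratched, washed with PBS, then cultured 48 hours in 2% FBS medium containing test polypeptide (10 μM) or PBS control, in triplicate wells. From images, migration rate (%) = (original − current scratch width)/original width × 100.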

[13] = system: human liver cancer cells (HepG2); test: scratch assay, migration of HepG2 cells; settings: HepG2, 10 μM, 48 hours; control group 71.01 ± 6.63
In short: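 HepG2 monolayers scratched, then cultured 48 h in 2% FBS medium with test polypeptides at 10 μM versus PBS control, triplicate wells. Migration rate (%) computed from original versus current scratch width in images.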

[14] = system: human non-small cell lung cancer cells (A549); test: scratch assay, migration of A549 cells; settings: A549, 10 μM, 48 hours; control group 75.31 ± 8.19
In short: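 Confluent A549 monolayers in 24-well plates were scratched, washed with PBS, then cultured 48 h in 2% FBS medium with peptide at 10 μM or PBS control, triplicate wells. Scratch width measured from images; migration rate (%) = (original − current width)/original width × 100.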

Row | Substance | Migration rate (%) (mean ± SD, P) [1] | Migration rate (%) (mean ± SD, P) [2] | Migration rate (%) (mean ± SD, P) [3] | Migration rate (%) (mean ± SD, P) [4] | Migration rate (%) (mean ± SD, P) [5] | Migration rate (%) (mean ± SD, P) [6] | Migration rate (%) (mean ± SD, P) [7] | Migration rate (%) (mean ± SD, P) [8] | Migration rate (%) (mean ± SD, P) [9] | Migration rate (%) (mean ± SD, P) [10] | Migration rate (%) (mean ± SD, P) [11] | Migration rate (%) (mean ± SD, P) [12] | Migration rate (%) (mean ± SD, P) [13] | Migration rate (%) (mean ± SD, P) [14]
1 | N12: SEQ ID NO: 1 with deletion of position 18 and positions 1-2 (VRFLAKENVTQDAED) | 11.65 ± 3.32,** % | 7.67 ± 3.29,*** % | 6.32 ± 1.78,*** % | 15.41 ± 3.55,** % | 12.46 ± 3.75,*** % | 23.26 ± 6.90,** % | 6.61 ± 2.83,** % | 17.72 ± 2.53,** % | 13.18 ± 6.31,*** % | 28.72 ± 2.96,** % | 8.14 ± 3.00,*** % | 11.53 ± 2.78,*** % | 48.01 ± 5.38,** % | 20.05 ± 8.79,** %
2 | N40: SEQ ID NO: 1 with deletion of positions 1-5 and 15-18, PEG at the amino terminal, two amino acids added at the carboxyl terminal ({PEG}-LAKENVTQDRC; reading uncertain) | 4.36 ± 1.35,*** % | 39.96 ± 4.95,* % | 13.88 ± 6.51,** % | 21.12 ± 4.15,* % | 6.47 ± 1.39,*** % | 13.24 ± 8.56,*** % | 6.65 ± 2.54,** % | 10.25 ± 2.76,** % | 17.00 ± 6.49,*** % | 36.23 ± 5.05,** % | 2.19 ± 1.45,*** % | 6.47 ± 4.39,*** % | 32.55 ± 4.09,** % | 20.15 ± 8.91,** %
3 | N28: SEQ ID NO: 1 with deletion of positions 1-2 and 18 and PEG modification at the amino terminal ({PEG}-VRFLAKENVTQDAED; reading uncertain) | 14.83 ± 5.38,* % | 8.77 ± 2.85,*** % | 11.32 ± 5.61,** % | 9.36 ± 1.8,** % | 10.80 ± 2.66,*** % | 32.25 ± 5.40,** % | 15.63 ± 2.59,* % | 15.23 ± 3.59,* % | 18.08 ± 7.38,*** % | 28.08 ± 3.38,*** % | 9.19 ± 3.22,*** % | 11.24 ± 3.52,*** % | 12.25 ± 8.40,*** % | 17.20 ± 6.23,*** %
4 | N13: SEQ ID NO: 1 with deletion of positions 15-18 and positions 1-5 (LAKENVTQD) | 13.79 ± 2.05,** % | 11.99 ± 2.39,*** % | 9.28 ± 2.43,*** % | 7.45 ± 2.6,*** % | 16.28 ± 4.19,** % | 18.28 ± 8.38,*** % | 9.77 ± 3.66,* % | 9.38 ± 2.46,*** % | 11.29 ± 8.97,*** % | 21.2 ± 4.41,*** % | 12.19 ± 3.22,*** % | 14.53 ± 3.53,** % | 45.91 ± 4.70,** % | 19.37 ± 9.40,** %
5 | N24: SEQ ID NO: 1 with substitution A7R, deletion of positions 1-2 and of position 18 (VRFLRKENVTQDAED) | 9.43 ± 1.12,** % | 16.54 ± 3.19,** % | 15.84 ± 4.44,* % | 20.97 ± 3.37,* % | 15.79 ± 4.16,** % | 13.99 ± 7.57,*** % | 8.44 ± 1.63,** % | 14.07 ± 5.12,* % | 15.74 ± 8.70,*** % | 35.78 ± 4.79,** % | 12.14 ± 2.49,*** % | 24.03 ± 4.21,* % | 16.38 ± 6.48,*** % | 31.05 ± 3.60,** %
6 | N42: SEQ ID NO: 1 with deletion of positions 1-5 and 15-18, PEG at the amino terminal, one amino acid added at the carboxyl terminal ({PEG}-LAKENVTQDR; reading uncertain) | 10.04 ± 2.28,** % | 25.71 ± 2.79,** % | 14.12 ± 9.89,** % | 17.91 ± 3.66,** % | 8.92 ± 2.25,*** % | 24.26 ± 7.91,** % | 5.89 ± 1.02,** % | 18.63 ± 2.79,* % | 17.46 ± 6.33,*** % | 35.42 ± 4.97,** % | 6.75 ± 2.33,*** % | 8.92 ± 2.65,*** % | 30.92 ± 4.57,** % | 60.74 ± 3.40,* %
